Assay results as given in paper PMC3285689, “Structure Based Design and Synthesis of Peptide Inhibitor of Human LOX-12: In Vitro and In Vivo Analysis of a Novel Therapeutic Agent for Breast Cancer” (PLoS ONE, 2012).
Several values for one entry are separate records, joined by “and”; a condition that tells them apart may be missing. Identical values can stand only once. Entries after “also recorded” stand apart in the source; their conditions may differ. Like-named read-outs stand apart in the source and are kept apart here. Blank lines part the entries; values can stand above or below the molecule they belong to. Where a SMILES comes first, the peptide text is derived from it.

What was measured:
human LOX-12 (human) [1] = target: T1, human LOX-12 (human) (UniProt P18054)
T1 sequence: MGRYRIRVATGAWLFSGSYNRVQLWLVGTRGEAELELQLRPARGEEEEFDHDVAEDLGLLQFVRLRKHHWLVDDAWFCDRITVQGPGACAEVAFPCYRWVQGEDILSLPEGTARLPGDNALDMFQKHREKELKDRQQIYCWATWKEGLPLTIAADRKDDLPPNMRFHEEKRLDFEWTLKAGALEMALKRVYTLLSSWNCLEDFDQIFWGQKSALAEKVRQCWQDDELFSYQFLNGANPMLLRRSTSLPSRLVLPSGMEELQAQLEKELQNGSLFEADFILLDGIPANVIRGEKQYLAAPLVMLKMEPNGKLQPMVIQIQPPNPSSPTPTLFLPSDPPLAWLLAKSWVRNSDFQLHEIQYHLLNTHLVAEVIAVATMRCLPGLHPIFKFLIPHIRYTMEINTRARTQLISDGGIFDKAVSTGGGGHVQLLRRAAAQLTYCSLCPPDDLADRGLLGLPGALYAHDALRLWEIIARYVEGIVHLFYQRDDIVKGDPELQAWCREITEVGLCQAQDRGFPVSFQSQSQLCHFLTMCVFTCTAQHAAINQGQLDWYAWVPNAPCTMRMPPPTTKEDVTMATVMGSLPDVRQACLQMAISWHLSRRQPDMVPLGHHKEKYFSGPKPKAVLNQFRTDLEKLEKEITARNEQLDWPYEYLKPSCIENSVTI

LOX-12 [2] = target: T2, LOX-12 (Homo sapiens, UniProt P18054); test: Inhibition of human LOX-12 activity, spectrophotometric screen; assay type: biochemical; details: LOX-12 incubated with peptide 30 min; arachidonic acid, 0.2% Tween-20, 50 mM potassium phosphate pH 7.2; absorbance 269 nm; average of triplicates; inhibitor concentration not given
T2 construct: made in house; host or cells: E. coli BL21 codon+ (pET28a)
T2 sequence (P18054 1-663): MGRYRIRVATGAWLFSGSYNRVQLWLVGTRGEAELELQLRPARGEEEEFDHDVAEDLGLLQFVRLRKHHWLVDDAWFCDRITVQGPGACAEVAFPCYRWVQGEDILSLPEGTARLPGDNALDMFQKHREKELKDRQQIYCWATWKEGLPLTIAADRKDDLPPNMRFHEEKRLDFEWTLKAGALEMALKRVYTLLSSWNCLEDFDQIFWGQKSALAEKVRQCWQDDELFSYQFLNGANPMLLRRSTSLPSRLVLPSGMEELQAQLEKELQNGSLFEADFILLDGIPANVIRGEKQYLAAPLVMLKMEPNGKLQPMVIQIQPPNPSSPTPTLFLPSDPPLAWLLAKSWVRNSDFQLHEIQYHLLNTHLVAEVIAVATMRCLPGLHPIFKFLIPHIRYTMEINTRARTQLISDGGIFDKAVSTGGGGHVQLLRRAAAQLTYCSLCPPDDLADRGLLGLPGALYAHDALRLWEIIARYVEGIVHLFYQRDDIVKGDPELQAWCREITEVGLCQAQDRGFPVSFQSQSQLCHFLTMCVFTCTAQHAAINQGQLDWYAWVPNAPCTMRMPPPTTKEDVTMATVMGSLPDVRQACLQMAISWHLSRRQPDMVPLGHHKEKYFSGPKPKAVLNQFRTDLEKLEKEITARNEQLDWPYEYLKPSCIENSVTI
Procedure: For inhibition study, the human LOX-12 was incubated with peptide for 30 min, which was then added to the reaction buffer containing arachidonic acid (substrate), 0.2% Tween-20, 50 mM potassium phosphate buffer pH 7.2. The change in absorbance was monitored at 269 nm and the percentage of inhibition was calculated. A control reaction was always carried out without any peptide inhibitor to ensure the activity of protein under experimental conditions.
The activity assay for LOX-12 in presence of 10 different peptides with substrate was performed by using spectrophotometer. The assay was performed at 269 nm which gives the absorption maxima for the product LTB4.

human red blood cells = test: Hemolysis of human red blood cells; assay type: cell-based; details: concentration upto 358 µM; hRBC 1% (v/v) in PBS pH 7.0, 1 h at 37°C, absorbance 541 nm, triplicate
Procedure: The effect of peptide on hemolysis was determined by using human red blood cells (hRBC from volunteer). The freshly collected hRBC were centrifuged for 10 mins to remove the buffy coat and washed with phosphate buffered saline (PBS: 35 mM Na2HPO4, pH 7.0 and 150 mM NaCl). 100 µl of the hRBC (suspended in 1% (v/v) in PBS) and 10 µl peptide solution were added into the sterile 96 well plates in triplicate. The plates were incubated for 1 h at 37°C and centrifuged at 1000× g for 5 mins. The supernatant were transferred to fresh 96 well plates, where hemoglobin released was monitored by measuring the absorbance spectrophotometrically at 541 nm. Similar steps were carried out for Gentamycin, as a control. The percentage of hemolysis (determined in PBS and 0.1% Triton X-100) was calculated from the standard graph which was plotted with % hemolysis of prepared RBCs vs optical densities.
The haemolytic activity of the peptide was determined to ensure the toxicity to erythrocytes using human RBCs. The concentration upto 358 µM of the peptide lysed only 22% human erythrocytes ( Figure 2 ).

MDA-MB-231 = details: 72 h; for percentage of cell viability: MDA-MB-231, MTT
Procedure: (§1) Cytotoxic effect of LOX-12 inhibitory peptides was analyzed on MCF-7 (ER+) and MDA-MB-231 (ER+) breast cancer cell lines by MTT [3-(4, 5-dimethylthiazol-2-yl)-2, 5-diphenyltetrazolium bromide] dye reduction assay. Briefly, 3×10^3 cells/100 µl media were seeded in 96-well plates 24 h before the experiment. The cells were then incubated with different concentrations of the peptides for 24, 48 and 72 h as indicated. The cells were treated with DMSO (same concentration as used to solubilise the peptide) which was then subtracted from all the cytotoxic values.10 µl/well MTT-solution (10 mg/ml in PBS) was then added and plates were further incubated for 3 h at 37°C. The formazan crystals formed were dissolved by adding 100 µl/well of dimethyl sulfoxide (DMSO). Absorbance was measured by a microplate reader at 570 nm with a reference filter 650 nm. 100 µl of medium with 10 µl of MTT stock-solution and 100 µl of DMSO was used as a blank solution to correct the background. The data obtained was presented as percentage viability in the best-fit (linear) dose response curve. The IC50 values at 95% confidence intervals was calculated for all cell lines. Each concentration was used in triplicate. The peptide AIRS was used as a negative control.
(§2) MCF-7 cells were treated with 0–150 µM (0.05% DMSO as a vehicle control) and MDA-MB-231 was treated with 0–500 µM (0.05% DMSO as a vehicle control) of the LOX-12 inhibitory peptides for 24, 48 and 72 h to perform the cytotoxic activity.

MDA-MB-231 cells = test: Annexin-V binding apoptosis assay by flow cytometry, MDA-MB-231; assay type: cell-based, human; details: 72 h, annexin-V/PI flow cytometry
MCF-7 = details: MCF-7, MTT, 72 h
Procedure: as §1, §2

[3] = system: Ehrlich's Ascites Tumor cell line (EAT) (murine breast carcinoma); test: Antitumor activity in Swiss albino mice implanted with EAT tumor cell line; assay type: in vivo
Procedure: In-vivo animal experimentation of peptide for anticancer activity was done using mice model. Swiss albino mice were obtained from Central animal facility, AIIMS at 55–65 days of age. The animals were housed in polycarbonated cages, bedded with husk. The animal facility was environmentally controlled; mice were maintained at normal room temperature with suitable relative humidity and 12 h light, 12 h dark cycle. Animals were fed chow food and purified water ad libitum throughout the study. Animals were randomized into 5mice per cage in 3 groups (Group I, II and III) for the study.
Ehrlich's Ascites Tumor cell line (EAT) (murine breast carcinoma), was used for tumor induction. The cell line was maintained in-vivo by passaging weekly intraperitonealy (i.p) from mice to mice. For tumor induction, 14 million cells approximately 150 µl volumes was injected to the animal in a group subcutaneously on the dorsal side of the body (back) and kept under observation for tumor onset.
Tumor size was recorded by vernier calipers and tumor volume was calculated using the formula: V = 0.5×L×W^2, where L is the length (long axis) and W is the width (short axis).
In Group I (control, untreated) only tumor cell line was administered. In group II, YWCS peptide was administered when the tumor volume reached 0.22±0.10 cm^3 on day 10, at a dose of […] intravenously (i.v) per mouse once daily for 20 days from day 11 to day 30. In group III, same concentration of peptide was injected intravenously (i.v) simultaneously after injecting tumor cells subcutaneously on day one. During experimental period mice were under observation till sacrificed.

LOX-12 [4] = target: T2, LOX-12; test: SPR binding of peptides to immobilized His-LOX-12 (BIAcore 2000); details: His-LOX-12 on Ni2+-NTA chip, analyte 25, 50, 75 µM, flow 10 µl/min, BIA evaluation 3.0, read-out: Dissociation constant KD
LOX-12 [5] = target: T2, LOX-12; test: Kinetic assay of LOX-12 inhibition (Michaelis-Menten, competitive Ki); assay type: biochemical
Procedure: For kinetic assay, the above experiment was done with four different concentrations of peptides (25–100 µM). For each concentration of peptide the experiment was repeated with six different concentrations (20–120 µM) of substrate, arachidonic acid. The enzyme concentration was constant (1.0 µM) throughout the assay. The competitive kinetic constant (Ki) was calculated graphically using the Michaelis-Menton equation in graphpad prism software. The graph of activity vs. concentration of arachidonic acid was plotted.
Competitive kinetic constant of the best peptide YWCS was calculated using graphpad prism software.

MCF-7 cells = test: Annexin-V binding apoptosis assay by flow cytometry, MCF-7; assay type: cell-based, human; details: 72 h, annexin-V/PI flow cytometry
Procedure: The frequency of apoptosis in MCF7 cells and MDA-MB-231 by the treatment with YWCS was assayed by annexin-V binding assay. Briefly, MCF7 cells and MDA-MB-231 were pulsed with the peptide for 72 h. After termination of the culture, cells were stained with annexin-V apoptosis detection kit (Biolegend) according to the manufacturer's instructions. The cells were washed twice with PBS, and resuspended in annexin-V binding buffer. To the cell suspension, 5 µl of FITC-conjugated annexin-V (Biolegend) and 10 µl of propidium iodide (PI) (50 µg/ml) solution were added and further incubated for 15 min at room temperature. About 10,000 events were acquired in FACS Canto flow cytometer (Becton–Dickinson, USA). The frequency of annexin-positive (apoptotic) cells was determined using BD FACSDiva software.
The apoptotic activity of the peptide YWCS was performed using annexin-V binding assay. Apoptosis induction was observed as early as 72 h.

human LOX-12 (human) [6] = target: T1, human LOX-12 (human); test: enzyme inhibition kinetics (spectrophotometric); 1.0 µM LOX-12 incubated with peptide (25-100 µM) for 30 min; arachidonic acid 20-120 µM, 0.2% Tween-20, 50 mM potassium phosphate pH 7.2; absorbance at 269 nm; competitive Ki from the Michaelis-Menten equation (GraphPad Prism)
human LOX-12 (human) [7] = target: T1, human LOX-12 (human); remark: listed apart in the source

Molecule: WFC (peptide)
% inhibition of LOX-12 enzyme activity (arachidonic acid substrate, absorbance at 269 nm) (human LOX-12 (human) [1]): 72.1%

Molecule: N[C@@H](Cc1ccc(O)cc1)C(=O)N[C@@H](Cc1c[nH]c2ccccc12)C(=O)N[C@@H](CS)C(=O)N[C@@H](CO)C(=O)O [YWCS] (H-YWCS-OH)
Percentage of hemolysis of human erythrocytes (human red blood cells): 22%
IC50 (MDA-MB-231): 400 µM
percentage of cell viability (MDA-MB-231; 50 µM): 92%
percentage of cell viability (MDA-MB-231; 100 µM): 87.46%
percentage of cell viability (MDA-MB-231; 150 µM): 80.36%
percentage of cell viability (MDA-MB-231; 200 µM): 72.51%
percentage of cell viability (MDA-MB-231; 350 µM): 54.76%
percentage of cell viability (MDA-MB-231; 400 µM): 48.19%
percentage of cell viability (MDA-MB-231; 500 µM): 43.07%
mean percentage apoptotic cells (MDA-MB-231 cells; MDA-MB-231, 350 µM): 15.0±1.2%
mean percentage apoptotic cells (MDA-MB-231 cells; MDA-MB-231, 400 µM): 20.8% and 20.8±3.2%
mean percentage apoptotic cells (MDA-MB-231 cells; MDA-MB-231, 450 µM): 22.1±1.5%
percentage cell viability (MCF-7; 25 µM): 88.6%
percentage cell viability (MCF-7; 50 µM): 85.7%
percentage cell viability (MCF-7; 100 µM): 31.2%
percentage cell viability (MCF-7; 150 µM): 21.1%
IC50 (MCF-7; read-out: IC50 (cell viability), triplicate): 75 µM
Tumor volume, Day 20 ([3]; Group II, 200 µmol i.v. per mouse once daily from day 11 to day 30, control 2.09±0.06): 1.62±0.49 cm^3
Tumor volume, Day 30 ([3]; Group II, 200 µmol i.v. per mouse once daily from day 11 to day 30, control 4.5±0.24): 3.04±1.06 cm^3
Size of liver and spleen in sacrificed animals ([3]; Group II, peptide treated for 20 days, control Group I showed the same): liver and spleen enlargement
Tumor volume, Day 20 ([3]; Group III, 200 µmol peptide i.v. simultaneously after injecting EAT cells s.c. on day one): No tumor was observed; also recorded: No tumor onset
Kd (LOX-12 [4]): 0.0339 µM
Mode of inhibition (LOX-12 [5]; linearised analysis of Michaelis-Menten data, in presence of substrate arachidonic acid): competitive mode of inhibition
Ki (LOX-12 [5]; peptide 25-100 µM, arachidonic acid 20-120 µM, enzyme 1.0 µM, Michaelis-Menten fit in graphpad prism, read-out: Competitive kinetic constant Ki): 7.25 µM
mean percentage apoptotic cells (MCF-7 cells; MCF-7, 50 µM): 41.2±5.8%
mean percentage apoptotic cells (MCF-7 cells; MCF-7, 75 µM): 49.8% and 49.8±6.5%
mean percentage apoptotic cells (MCF-7 cells; MCF-7, 100 µM): 58.3±7.5%
% inhibition (LOX-12 [2]): 86.1%

Molecule: WFA (peptide)
% inhibition of LOX-12 enzyme activity (arachidonic acid substrate, absorbance at 269 nm) (human LOX-12 (human) [1]): 73.5%

Molecule: FYS (peptide)
% inhibition of LOX-12 enzyme activity (arachidonic acid substrate, absorbance at 269 nm) (human LOX-12 (human) [1]): 79.8%

Molecule: FWCS
% inhibition (LOX-12 [2]): 74.2%

Molecule: YWCS
% inhibition of LOX-12 enzyme activity (arachidonic acid substrate, absorbance at 269 nm) (human LOX-12 (human) [1]): 86.1%
Ki (human LOX-12 (human) [6]): 7.25 µM
% inhibition of LOX-12 enzyme activity (arachidonic acid substrate, absorbance at 269 nm) (human LOX-12 (human) [7]): 80%

Molecule: AIYW
% inhibition of LOX-12 enzyme activity (arachidonic acid substrate, absorbance at 269 nm) (human LOX-12 (human) [1]): 69.3%

Second part, the molecule after the results:

% inhibition of LOX-12 enzyme activity (arachidonic acid substrate, absorbance at 269 nm) (human LOX-12 (human) [1]): 80.4%
Molecule: FWY (peptide)

% inhibition (LOX-12 [2]): 69.3%
Molecule: AIYW

% inhibition (LOX-12 [2]): 85.1%
Molecule: O=c1cc(-c2ccccc2)oc2cc(O)c(O)c(O)c12 [Baicalein, reference compound]

% inhibition of LOX-12 enzyme activity (arachidonic acid substrate, absorbance at 269 nm) (human LOX-12 (human) [1]): 73.2%
Molecule: YW (peptide)

% inhibition of LOX-12 enzyme activity (arachidonic acid substrate, absorbance at 269 nm) (human LOX-12 (human) [1]): 71.6%
Molecule: YWG (peptide)

% inhibition of LOX-12 enzyme activity (arachidonic acid substrate, absorbance at 269 nm) (human LOX-12 (human) [1]): 53.2%
Molecule: WKS (peptide)

% inhibition of LOX-12 enzyme activity (arachidonic acid substrate, absorbance at 269 nm) (human LOX-12 (human) [1]): 74.2%
Molecule: FWCS
